We go through one compound from publication PMC6141879, “How Does the Sweet Violet (Viola odorata L.) Fight Pathogens and Pests – Cyclotides as a Comprehensive Plant Host Defense System” (Frontiers in Plant Science, 2018).

One data set deals with Fusarium culmorum. Particulars: 48 h.
Another data set has as its system F. oxysporum. Briefly: Cyclotide stability assay in F. oxysporum culture. Particulars: 5 days old F. oxysporum culture (3000 spores in 150 μl 24 g l^-1 PDB), 5 μg cyO2 per well, 3 days, HPLC-UV 280 nm AUC relative to time 0, mean of triplicates, unaltered molecular mass. The format is in vitro ADME, Fusarium oxysporum. How it is done: Freshly harvested F. oxysporum spores were grown in microplates (3000 spores in 150 μl of 24 g l^-1 PDB per well) on a rotary shaker. After 5 days of incubation, 5 μg of cyO2 in 10 μl of Milli-Q water was added to each well. Samples of the medium and mycelia were collected in Eppendorf tubes immediately after adding cyO2 (time 0) and after incubation with the cyclotide for 2, 4, 8h, 1, 2, and 3 days. The samples were freeze-dried, crushed with a pestle, and extracted with 200 μl of buffer B for 4 h on the rotary shaker. After centrifugation, the supernatant was collected, freeze-dried and reconstituted in buffer A for analysis by HPLC-UV-ESI-MS. HPLC was performed over 18 min using an LC-20 UFLC system (Shimadzu, Japan) with photodiode array detector (PDA) and a Waters (Milford, MA) XTerra MS C18 HPLC column (2.1 × 50 mm, with a particle size of 2.5 μm) at a flow rate of 0.5 ml min^-1 with a linear gradient from 5% to 60% ACN and 0.1% formic acid in water. ESI-MS detection was used to identify the cyO2 peak and to detect modifications of the peptide that may have been introduced by the fungus. For each incubation time, the peaks in the 280 nm UV chromatogram corresponding to cyO2 were integrated, and the mean area under the curve (AUC) for each incubation time was computed from independent triplicates. […]

Data set [1] in a line: Liposome leakage assay, fungal membrane model. Particulars: read-out: EC50 of liposome permeabilization (carboxyfluorescein leakage); S. cerevisiae polar lipid extract:ergosterol 7:3 liposomes, Tris buffer, 45 min, % of Triton X-100 leakage, triplicate.
Data set [2] concerns Colletotrichum utrechtense. Particulars: 72 h.
Another data set has as its system Alternaria alternata. Particulars: 72 h.
A further data set relates to Mycosphaerella fragariae. Particulars: 48 h.
The test system of data set [3] is Dickeya dadantii strain 3937. Particulars: 24 h.
Another data set deals with Fusarium graminearum. Particulars: 48 h.
The subject of a further data set is Fusarium oxysporum. Particulars: 0 h.
The test system of data set [4] is Pectobacterium atrosepticum SCRI 1043. Particulars: 24 h.

SMILES strings stand for the structures. Values after ≈ are worked out from the molar mass of the structure shown. Where a SMILES comes first, the peptide text is derived from it. Bridges are numbered along the chain shown (N, C = ends). Where only a bound is given, the exact number is not on record here.

Take `CC[C@H](C)[C@@H]1NC(=O)[C@H](C)NC(=O)[C@H](CO)NC(=O)[C@H](CO)NC(=O)[C@H]([C@@H](C)CC)NC(=O)[C@@H]2CSSC[C@@H]3NC(=O)[C@H](C(C)C)NC(=O)[C@H](CCCCN)NC(=O)[C@H](CO)NC(=O)[C@H](CCCCN)NC(=O)[C@@H]4CSSC[C@H](NC(=O)[C@H](CO)NC(=O)[C@H](CCC(=O)O)NC(=O)CNC(=O)[C@H](CSSC[C@H](NC(=O)CNC1=O)C(=O)N[C@@H](CO)C(=O)N4)NC(=O)[C@@H]1CCCN1C(=O)[C@H]([C@@H](C)CC)NC(=O)CNC(=O)[C@H](CC(N)=O)NC(=O)[C@H](CCCNC(=N)N)NC(=O)[C@H](Cc1ccc(O)cc1)NC3=O)C(=O)N[C@@H](C(C)C)C(=O)N[C@@H](Cc1c[nH]c3ccccc13)C(=O)N[C@@H]([C@@H](C)CC)C(=O)N1CCC[C@H]1C(=O)N2` [cyO2, cycloviolacin O2] (cyclo(AIGCSCKSKVCYRNGIPCGESCVWIPCISS); disulfide 4-18, 6-22, 11-27 (inferred); ring closure inferred): the MIC is 1.5 µM (≈ 4.71 µg/mL) in the data set on Fusarium culmorum; 6.25 µM (≈ 19.6 µg/mL) in data set [2]; 1.5 µM (≈ 4.71 µg/mL) against Alternaria alternata; greater than 25 µM in the data set on Mycosphaerella fragariae; 75 µM (≈ 236 µg/mL) in [3]; 6.25 µM (≈ 19.6 µg/mL) against Fusarium graminearum. In data set [4], this compound showed an MIC of 100 µM (≈ 314 µg/mL). Further, the “initially added amount recovered after co-culture with F. oxysporum” value with F. oxysporum is reported as roughly 100%. Moreover, the concentration giving a half-maximal response (EC50) in [1] worked out at 72 nM. Also, in the data set with Fusarium oxysporum, the “MIC at the inoculum used for immunogold labeling” value turned out to be 80 µM.

Usually MIC stands for the least concentration at which growth counts as inhibited. In general, EC50 refers to the midpoint of the concentration-response curve.
